Measured values reported in US10253007B2, “Taxanes compounds, preparation method therefor, and uses thereof” (Jiangsu Tasly Diyi Pharmaceutical Co., Ltd., priority 2013, dated 2019).
Like-named read-outs stand apart in the source and are kept apart here.

Columns and labels:
[1] = MTT assay, proliferation inhibition; type: cell-based; details: Homo sapiens, LN-18 gastric cancer, read-out: Proliferation inhibition rate
From the text: (§1) 1. Cytotoxicity Assay Using Human Tumor Cell Lines
(§2) Paclitaxel was used as the positive drug.

A2780 ovarian cancer = assay: MTT assay, proliferation inhibition; type: cell-based; details: Homo sapiens, read-out: Proliferation inhibition rate
From the text: as §1, §2

A375 melanoma = assay: MTT assay, proliferation inhibition; type: cell-based; details: Homo sapiens, A-375, read-out: Proliferation inhibition rate
From the text: as §1, §2

[2] = test system: A549 non-small cell lung cancer; assay: MTT assay, proliferation inhibition; type: cell-based; details: Homo sapiens, read-out: Proliferation inhibition rate
From the text: as §1, §2

B16 melanoma = assay: MTT assay, proliferation inhibition; type: cell-based; details: read-out: Proliferation inhibition rate
From the text: as §1, §2

BGC-823 gastric cancer = assay: MTT assay, proliferation inhibition; type: cell-based; details: Homo sapiens, read-out: Proliferation inhibition rate
From the text: as §1, §2

DU145 prostate cancer = assay: MTT assay, proliferation inhibition; type: cell-based; details: Homo sapiens, DU-145, read-out: Proliferation inhibition rate
From the text: as §1, §2

HCT 116 colon cancer = assay: MTT assay, proliferation inhibition; type: cell-based; details: Homo sapiens, read-out: Proliferation inhibition rate
From the text: as §1, §2

HL60 leukemia = assay: MTT assay, proliferation inhibition; type: cell-based; details: Homo sapiens, HL-60, read-out: Proliferation inhibition rate
From the text: as §1, §2

HT29 colon cancer = assay: MTT assay, proliferation inhibition; type: cell-based; details: Homo sapiens, HT-29, read-out: Proliferation inhibition rate
From the text: as §1, §2

HeLa cervical cancer = assay: MTT assay, proliferation inhibition; type: cell-based; details: Homo sapiens, read-out: Proliferation inhibition rate
From the text: as §1, §2

K562 leukemia = assay: MTT assay, proliferation inhibition; type: cell-based; details: Homo sapiens, read-out: Proliferation inhibition rate
From the text: as §1, §2

LNCaP prostate cancer = assay: MTT assay, proliferation inhibition; type: cell-based; details: Homo sapiens, read-out: Proliferation inhibition rate
From the text: as §1, §2

MCF-7 breast cancer = assay: MTT assay, proliferation inhibition; type: cell-based; details: Homo sapiens, MCF7, read-out: Proliferation inhibition rate
From the text: as §1, §2

MDA-MB-436 breast cancer = assay: MTT assay, proliferation inhibition; type: cell-based; details: Homo sapiens, read-out: Proliferation inhibition rate
From the text: as §1, §2

[3] = test system: NCI-H460 non-small cell lung cancer; assay: MTT assay, proliferation inhibition; type: cell-based; details: Homo sapiens, read-out: Proliferation inhibition rate
From the text: as §1, §2

[4] = test system: breast cancer cell line MCF-7; assay: IC50 values on breast cancer cell line MCF-7; type: cell-based; details: Homo sapiens, MCF7, 72 h
From the text: From the activity evaluation data of the above-mentioned preliminary screen, it can be seen that the series of taxanes derivatives synthesized in the present invention have activity (although the activity of PCMI-43 is weakened). Afterward, most of the compounds are picked up from these derivatives to examine their IC50 values on breast cancer cell line MCF-7. Paclitaxel is used as the positive control drug. Experiments for each compound were independently repeated for three times and multiple holes were used in each experiment. The exposure time of drugs was 72 hours.

[5] = Caco-2 cell monolayer membrane transport assay; details: human; for recovery: Caco-2, Recovery rate in mass
From the text: (§3) Caco-2 Cell Monolayer Membrane Transport Assay
(§4) Human-derived colorectal adenocarcinoma cell line Caco-2 cell monolayer model was used to study the bidirectional transport of the target compounds from the apical (AP) side to the basolateral (BL) side and from BL side to AP side. HPLC was used for quantitative analysis to calculate transport parameters, apparent permeability coefficient (Papp) and the efflux ratio.

Caco-2 cell monolayer [6] = assay: Caco-2 cell monolayer membrane transport assay
From the text: as §3, §4

16 cancer cell lines = assay: Preliminary cytotoxicity evaluation on 16 cancer cell lines (MTT); type: cell-based, human; details: preliminary screen at 1 μM, compared with paclitaxel
From the text: as §1, §2
In both cancer cell lines of A549 and B16, the cytotoxicity of the taxanes derivatives is slightly lower than that of the positive control drug.

Caco-2 cell monolayer [7] = details: human
From the text: as §3, §4

[8] = reported value for paclitaxel; cited from earlier work
in vitro = details: human, Caco-2, Papp A-B, Mean
From the text: as §3, §4

[9] = Caco-2, Papp A-B, Caco-2 cell line (21 days), bidirectional transport, Table 5
[10] = Caco-2, Papp A-B, Mean, Caco-2, A-B, mean of two samples
[11] = Caco-2, Papp A-B, Sample-01, Caco-2, A-B, Sample-01
[12] = Caco-2, Papp A-B, Sample-02, Caco-2, A-B, Sample-02
[13] = Mean, Caco-2, A-B, mean of two samples
[14] = Sample-01, Caco-2, A-B, Sample-01
[15] = Sample-02, Caco-2, A-B, Sample-02
[16] = Caco-2 cell line (21 days), bidirectional transport, Table 5

| SMILES | inhibition at 1 µM [1] [%] | inhibition at 1 µM (A2780 ovarian cancer) [%] | inhibition at 1 µM (A375 melanoma) [%] | inhibition at 1 µM [2] [%] | inhibition at 1 µM (B16 melanoma) [%] | inhibition at 1 µM (BGC-823 gastric cancer) [%] | inhibition at 1 µM (DU145 prostate cancer) [%] | inhibition at 1 µM (HCT 116 colon cancer) [%] | inhibition at 1 µM (HL60 leukemia) [%] | inhibition at 1 µM (HT29 colon cancer) [%] | inhibition at 1 µM (HeLa cervical cancer) [%] | inhibition at 1 µM (K562 leukemia) [%] | inhibition at 1 µM (LNCaP prostate cancer) [%] | inhibition at 1 µM (MCF-7 breast cancer) [%] | inhibition at 1 µM (MDA-MB-436 breast cancer) [%] | inhibition at 1 µM [3] [%] | Papp A→B [5, 11] [×10⁻⁶ cm/s] | Papp A→B [5, 12] [×10⁻⁶ cm/s] | recovery [5, 13] [%] | recovery [5, 14] [%] | also measured |
| --- | --- | --- | --- | --- | --- | --- | --- | --- | --- | --- | --- | --- | --- | --- | --- | --- | --- | --- | --- | --- | --- |
| CO[C@H]1C(=O)[C@]2(C)[C@@H](OC(=O)N(C)C)C[C@H]3OC[C@@]3(OC(C)=O)[C@H]2[C@H](OC(=O)c2ccccc2)[C@]2(O)C[C@H](OC(=O)[C@H](O)[C@H](CC(C)C)NC(=O)OC(C)(C)C)C(C)=C1C2(C)C [PCMI-34] | 90.6 | 95 | 104 | 73.5 | 81.4 | 94.7 | 86.9 | 60.1 | 98.1 | 89.2 | 102 | 92.9 | 88.7 | 101 | 81.2 | 86.2 | 11.8 | 9.54 | 67.4 | 71.2 | IC50 ([4]; read-out: MCF-7(IC50, nM)): 13.26 ± 0.12 nM; Papp B→A ([5]; Caco-2): 30.9 ×10⁻⁶ cm/s; efflux ratio ([5]; Caco-2): 1.59; Papp A→B [5, 9]: 19.4 ×10⁻⁶ cm/s; Papp A→B [5, 10]: 10.7 ×10⁻⁶ cm/s; Papp A→B ([5]; Caco-2, Papp A-to-B, Caco-2): > 10 ×10⁻⁶ cm/s; recovery [5, 15]: 63.6%; membrane permeability (in words) (Caco-2 cell monolayer [6]; Caco-2 monolayer): highly permeable substrates |
| COC(=O)O[C@H]1C[C@H]2OC[C@@]2(OC(C)=O)[C@H]2[C@H](OC(=O)c3ccccc3)[C@]3(O)C[C@H](OC(=O)[C@H](O)[C@H](CC(C)C)NC(=O)OC(C)(C)C)C(C)=C([C@@H](OC)C(=O)[C@]12C)C3(C)C [PCMI-39] | 94.1 | 94.9 | 90.2 | 67.4 | 72.3 | 91.7 | 84.9 | 57.1 | 99.1 | 88.4 | 100 | 92.2 | 82.8 | 100 | 78.4 | 81.6 | 6.13 | 8.81 | 64.2 | 71.7 | IC50 ([4]; read-out: MCF-7(IC50, nM)): 2.81 ± 0.02 nM; Papp A→B [5, 10]: 7.47 ×10⁻⁶ cm/s; recovery [5, 15]: 56.7%; Papp A-B (Caco-2 cell monolayer [6]; [16]): 7.16 10^−6 cm/s; Papp B-A (Caco-2 cell monolayer [6]; [16]): 36.37 10^−6 cm/s |
| CO[C@H]1C(=O)[C@]2(C)CC[C@H]3OC[C@@]3(OC(C)=O)[C@H]2[C@H](OC(=O)c2ccccc2)[C@]2(O)C[C@H](OC(=O)[C@H](O)[C@H](CC(C)C)NC(=O)OC(C)(C)C)C(C)=C1C2(C)C [PCMI-42] | 94.8 | 95.6 | 104 | 77.6 | 78.3 | 92.8 | 87 | 66.1 | 97.6 | 88.2 | 99.3 | 94.3 | 82.9 | 97.8 | 79.5 | 84.3 | 7.85 | 6.49 | 74.2 | 81 | IC50 ([4]; read-out: MCF-7(IC50, nM)): 3.06 ± 0.08 nM; Papp A→B [5, 9]: 7.54 ×10⁻⁶ cm/s; recovery [5, 15]: 67.3%; efflux ratio (Caco-2 cell monolayer [6]; Caco-2 cell line (21 days), Papp B-A/Papp A-B): 5.12; Papp B-A (Caco-2 cell monolayer [6]; [16]): 38.57 10^−6 cm/s |
| CO[C@H]1C(=O)[C@]2(C)C=C[C@@H](O)[C@](CO)(OC(C)=O)[C@H]2[C@H](OC(=O)c2ccccc2)[C@]2(O)C[C@H](OC(=O)[C@H](O)[C@@H](NC(=O)c3ccccc3)c3ccccc3)C(C)=C1C2(C)C [PCMI-43] | 73.2 | 70 | 77.8 | 53.9 | 13.3 | 38.2 | 63.4 | 46.1 | 76.3 | 36.4 | 52 | 80.9 | 61.2 | 68.3 | 35.7 | 62.1 | 3.21 | 2.89 | 72 | 76.6 | cytotoxicity (in words) (16 cancer cell lines): weakened; Papp A→B [5, 10]: 3.05 ×10⁻⁶ cm/s; recovery [5, 15]: 67.5% |
| CO[C@H]1C(=O)[C@]2(C)C=C[C@@H](O)[C@](CO)(OC(C)=O)[C@H]2[C@H](OC(=O)c2ccccc2)[C@]2(O)C[C@H](OC(=O)[C@H](O)[C@@H](NC(=O)OC(C)(C)C)c3ccccc3)C(C)=C1C2(C)C [PCMI-44] | 89.8 | 95.6 | 93.9 | 75.9 | 75.3 | 90.8 | 89.2 | 67.1 | 96.3 | 88.3 | 99.3 | 94.4 | 86.9 | 95.2 | 82.7 | 85.2 | 5.28 | 6.39 | 95.8 | 85.7 | IC50 ([4]; read-out: MCF-7(IC50, nM)): 10.9 ± 0.16 nM; cytotoxicity (in words) (16 cancer cell lines): remains good cytotoxicity; Papp B→A ([5]; Caco-2): 27.2 ×10⁻⁶ cm/s; efflux ratio ([5]; Caco-2): 4.76; Papp A→B [5, 9]: 5.72 ×10⁻⁶ cm/s; Papp A→B [5, 10]: 5.83 ×10⁻⁶ cm/s; recovery [5, 15]: 106% |
| CC(=O)O[C@H]1C(=O)[C@@]2(C)[C@H]([C@H](OC(=O)c3ccccc3)[C@]3(O)C[C@H](OC(=O)[C@H](O)[C@@H](NC(=O)c4ccccc4)c4ccccc4)C(C)=C1C3(C)C)[C@]1(OC(C)=O)CO[C@@H]1C[C@@H]2O [Paclitaxel, reference compound] | 94.5 | 96.7 | 96.2 | 81.6 | 84 | 92.5 | 90.6 | 70.4 | 96.8 | 88.4 | 101 | 96.6 | 87.1 | 94.2 | 83.1 | 87.5 |  |  |  |  | IC50 ([4]; MCF-7, exposure 72 hours, mean±SD of three independent experiments, read-out: MCF-7(IC50)): ~7.05 nM; Papp A-B (Caco-2 cell monolayer [7]): 0.97 10^−6 cm/s; Papp B-A (Caco-2 cell monolayer [7]): 33.39 10^−6 cm/s; efflux ratio (Caco-2 cell monolayer [7]): 34.38; reported absolute oral bioavailability [8]: less than 5%; Papp A→B (in vitro): 0.97 ×10⁻⁶ cm/s |
